This note sets out measurements from ChEMBL document CHEMBL3217581, “Synthesis and selective inhibition of human monoamine oxidases of a large scaffold of (4,5-substituted-thiazol-2-yl)hydrazones” (Medchemcomm, 2010).

Series [1] concerns the target T1, Amine oxidase [flavin-containing] A (Homo sapiens, UniProt P21397).
T1 sequence (P21397 whole entry): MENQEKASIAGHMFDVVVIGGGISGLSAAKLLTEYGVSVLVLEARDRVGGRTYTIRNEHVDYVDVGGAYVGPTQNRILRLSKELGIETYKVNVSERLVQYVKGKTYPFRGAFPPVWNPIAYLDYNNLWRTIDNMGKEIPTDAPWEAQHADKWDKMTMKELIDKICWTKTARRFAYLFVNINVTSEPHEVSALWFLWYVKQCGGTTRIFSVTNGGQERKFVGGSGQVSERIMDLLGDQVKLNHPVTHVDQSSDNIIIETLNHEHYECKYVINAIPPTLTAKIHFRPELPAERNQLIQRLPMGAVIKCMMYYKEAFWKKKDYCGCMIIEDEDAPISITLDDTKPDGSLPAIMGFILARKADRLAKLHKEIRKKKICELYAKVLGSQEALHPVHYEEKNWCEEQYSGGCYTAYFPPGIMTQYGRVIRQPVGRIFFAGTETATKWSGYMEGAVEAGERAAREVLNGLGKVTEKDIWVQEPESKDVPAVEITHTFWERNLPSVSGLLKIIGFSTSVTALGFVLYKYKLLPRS
Put plainly: Inhibition of human MAO-A expressed in baculovirus infected BTI-TN-5B1-4 insect cells using p-tyramine as substrate assessed as hydrogen peroxide production by fluorimetric method.

The species named for another series is Homo sapiens. Description: Selectivity index, ratio of IC50 for human MAO-B to IC50 for human MAO-A.
The target of series [2] is T2, Amine oxidase [flavin-containing] B (Homo sapiens, UniProt P27338).
T2 sequence (P27338 whole entry): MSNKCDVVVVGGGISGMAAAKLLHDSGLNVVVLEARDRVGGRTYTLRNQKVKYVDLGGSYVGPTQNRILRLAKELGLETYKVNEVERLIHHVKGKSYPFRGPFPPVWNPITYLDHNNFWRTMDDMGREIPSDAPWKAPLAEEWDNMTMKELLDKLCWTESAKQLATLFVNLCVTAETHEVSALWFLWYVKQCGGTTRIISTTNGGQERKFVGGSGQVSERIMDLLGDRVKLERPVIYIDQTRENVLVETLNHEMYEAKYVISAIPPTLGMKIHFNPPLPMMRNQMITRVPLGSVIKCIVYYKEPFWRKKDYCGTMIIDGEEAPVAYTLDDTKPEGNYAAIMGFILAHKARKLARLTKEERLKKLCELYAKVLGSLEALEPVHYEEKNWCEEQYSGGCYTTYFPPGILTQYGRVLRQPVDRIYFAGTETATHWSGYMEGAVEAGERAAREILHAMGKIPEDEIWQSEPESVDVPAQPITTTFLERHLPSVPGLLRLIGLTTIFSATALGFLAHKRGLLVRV
Description: Inhibition of human MAO-B expressed in baculovirus infected BTI-TN-5B1-4 insect cells using p-tyramine as substrate assessed as hydrogen peroxide production at 100 uM by fluorimetric method. The following applies: BTI-TN-5B1-4, human.

The target of series [3] is T2, Amine oxidase [flavin-containing] B. Description: Inhibition of human MAO-B expressed in baculovirus infected BTI-TN-5B1-4 insect cells using p-tyramine as substrate assessed as hydrogen peroxide production at 1 mM by fluorimetric method. Conditions: bti-tn-5b1-4, 1000 µM; call rule not given here.
The target in series [4] is T1, Amine oxidase [flavin-containing] A. Description: Inhibition of human MAO-A expressed in baculovirus infected BTI-TN-5B1-4 insect cells using p-tyramine as substrate assessed as hydrogen peroxide production at 100 uM by fluorimetric method. Conditions: BTI-TN-5B1-4, human.
Series [5] concerns the target T2, Amine oxidase [flavin-containing] B. Description: biochemical. The series is classed as cell-based, BTI-TN-5B1-4.
Description: Inhibition of human MAO-B expressed in baculovirus infected BTI-TN-5B1-4 insect cells using p-tyramine as substrate assessed as hydrogen peroxide production by fluorimetric method

The term IC50 denotes the concentration at which inhibition is half-maximal. Broadly, the inhibition is the relative decrease from the control value, in per cent.

Where only a bound is given, the exact number is not on record here.

For the compound `C(=N\Nc1nc(-c2ccc3ccccc3c2)cs1)/c1ccc2c(c1)OCO2`, the IC50 in series [1] was determined as 5.92 µM. Moreover, the Ratio IC50 in the series listed under Homo sapiens is over 16.7. The inhibition at 100 µM in series [2] amounted to 40%.

Regarding `O=C(NCCN1CCOCC1)c1ccc(Cl)cc1` [MOCLOBEMIDE], the “inhibition (INH)” value in series [3] is “Not Active”.

Regarding `C/C(=N\Nc1nc(-c2ccc3ccccc3c2)cs1)c1ccc2ccccc2c1`, the inhibition at 100 µM in series [4] and in series [2] was 40% in each case.

Regarding `Cc1sc(N/N=C/c2cccc3ccccc23)nc1-c1ccccc1`, the inhibition at 100 µM in series [4] and in series [2] was 40% in each case.

On to `C/C(=N\Nc1nc(-c2ccc3ccccc3c2)cs1)C1CCCCC1`, for which the IC50 in series [1] came to 6.95 µM. Besides, the Ratio IC50 in the series listed under Homo sapiens is over 14.3. Also, in series [2], the inhibition at 100 µM came out at 40%.

Take `CCCCCC/C(C)=N\Nc1nc(-c2ccc3ccccc3c2)cs1`: in series [1], the IC50 turned out to be 15.8 µM. For the same compound, the Ratio IC50 in the series listed under Homo sapiens is over 6.25. For the same compound, the inhibition at 100 µM in series [2] came out at 40%.

On to `C/C(=N\Nc1nc(-c2ccccc2)c(C)s1)c1ccc2ccccc2c1`, for which the inhibition at 100 µM in series [4] and in series [2] was 40% throughout.

For `C(=N\Nc1nc(-c2ccc3ccccc3c2)cs1)/c1ccco1`, the results for the IC50 in series [1] and in series [5] were 2.04 µM and 2760 nM, respectively. For the same compound, in the series filed under Homo sapiens, the Ratio IC50 stood at 1.35.

Turning to `C/C(=N\Nc1nc(-c2ccccc2)c(C)s1)c1ccco1`, the IC50 worked out at 1.68 µM in series [1] and 2100 nM in series [5]. The Ratio IC50 in the series listed under Homo sapiens turned out to be 1.25.

Regarding `C(=N\Nc1nc(-c2ccc3ccccc3c2)cs1)/c1cccnc1`, the IC50 in series [1] is 2.57 µM; in series [5], 4760 nM. The Ratio IC50 in the series filed under Homo sapiens came to 1.85.
